Source: article PMC12029179, “6-Chlorocoumarin Conjugates with Nucleobases and Nucleosides as Potent Anti-Hepatitis C Virus Agents” (Molecules, 2025)
pEC50, pIC50: −log10 of the molar value.

Columns and labels:
[1] = tested on: HCV; set-up: method as in PMID 19303654; details: Huh-5-2 cells; cited from earlier work
[2] = tested on: Huh-5-2 cells; set-up: method as in PMID 19303654; details: cited from earlier work
[3] = Host-cell metabolic activity (MTS assay) in Huh 5-2 cells; type: cell-based; details: human
Description: (§1) An evaluation of the antiviral effects of the conjugated compounds was initially performed in Huh 5-2 cells utilizing the HCV genotype 1b subgenomic replicon system, based on previously reported procedures. By analyzing the dose–response curves, we calculated the concentration of each compound that inhibited the viral replication by 50% (EC50) and the concentration that reduced the host-cell metabolic activity by 50% (CC50). These values were then used to compute the selectivity index (SI = CC50/EC50), which serves as an indicator of a compound’s therapeutic window. Even if an EC50 was determined from the dose–response curve in the antiviral assay, the compounds that were evaluated may not qualify as promising hits. […] It is likely that the antiviral activity observed in the other compounds is due to their nonspecific or pleiotropic effects on the host cell.

[4] = tested on: HCV genotype 1b subgenomic replicon; experiment: Anti-HCV assay in Huh 5-2 cells (luciferase replicon readout); type: cell-based, hepatitis C virus (HCV); details: for pEC50: Huh-5-2, Huh 5-2 cells, luminescence
Description: as §1
Huh 5-2 cells were plated in white, tissue culture-treated 96-well view plates (Packard, Canberra, Canada) at a density of 5 × 10^3 cells per well, using complete Dulbecco’s Modified Eagle Medium (DMEM) containing 250 µg/mL G418. Following 24 h incubation at 37 °C with 5% CO2, the medium was discarded and serial 3-fold dilutions of the test compounds—prepared in complete DMEM lacking G418—were added to reach a final volume of 100 µL per well. After an additional 4-day incubation period under the same conditions, the medium was removed, and luciferase activity was assessed using the Steady-Glo luciferase assay kit (Promega, Leiden, The Netherlands). Luminescence was measured with a Luminoskan Ascent reader (Thermo, Vantaa, Finland). The EC50 value was determined as the compound concentration resulting in a 50% decrease in luciferase signal.

[5] = tested on: Huh 9-13 cells; experiment: Host-cell metabolic activity in Huh 9-13 cells; type: cell-based
[6] = Host-cell metabolic activity in Huh 9-13 cells; type: cell-based; details: human
[7] = tested on: Detroit 551 cells; experiment: Cell viability (MTS) assay in Detroit 551 cells; type: cell-based; details: Detroit 551 cells; for cell death at highest tested concentration: 20 μM; for pIC50: Homo sapiens, 72 h incubation, tested starting at 20.0 μM, read-out: IC50 (cell survival rate of 50%)
Procedure: Detroit 551 cells, a human fibroblast cell line, are routinely employed to assess both acute and chronic toxicity in normal human cells. Evaluating the cytotoxicity of compounds in Detroit 551 cells helps to identify potential safety concerns early in drug development. The three promising leads, 7a, 7b, and 18, were tested in a Detroit 551 assay using the antineoplastic and antibiotic agent actinomycin D as a positive control.
Detroit 551 cells were harvested and seeded into a 96-well plate, then incubated at 37 °C for 24 h. A serial dilution of the test compound was prepared in eight three-fold concentrations (20,000 nM, 6667 nM, 2222 nM, 741 nM, 247 nM, 82 nM, 27 nM, and 9 nM), and 10 µL of each dilution was added to the corresponding wells. The plate was then returned to 37 °C for an additional 72 h of incubation. After this incubation, a 3-(4,5-dimethylthiazol-2-yl)-5-(3-carboxymethoxyphenyl)-2-(4-sulfophenyl)-2H-tetrazolium (MTS) assay medium (mixed in a 2:0.1 ratio of MTS–phenazine methyl sulfate (PMS)) was prepared. The plate was moved to a biological safety cabinet, and 21 µL of the MTS medium was added to each well. The plate was then incubated at 37 °C for 90 min before absorbance was measured at 490 nm on a Victor 2 plate reader (PerkinElmer, Inc., Waltham, MA, USA). Data were subsequently analyzed to assess cytotoxicity.

[8] = tested on: HCV subgenomic replicon; experiment: Anti-HCV assay in Huh 9-13 cells (real-time quantitative RT-PCR of replicon RNA); type: cell-based, hepatitis C virus (HCV); details: for % replicon RNA: normalized against no-drug control; for pEC50 / EC50: Hepatitis C virus; for pEC50: real-time quantitative RT-PCR readout; for EC50: supplement dose-response data
Procedure: Furthermore, the antiviral activity of three of the hits (i.e., 7a, 7b, and 18) was validated by evaluation of the dose–response effect of treatment with the compounds at the level of viral RNA replication in the Huh 9-13 assay system. The real-time quantitative RT-PCR readout was used.
Huh 9-13 cells were seeded at 5 × 10^3 cells per well into 96-well plates containing complete DMEM supplemented with 1000 µg/mL G418. […] After 4 days of incubation, the culture medium was removed, and the cell monolayers were washed once with phosphate-buffered saline (PBS). Cells were then lysed using 350 µL of RLT buffer (Qiagen, Venlo, The Netherlands) as per the manufacturer’s protocol, and the lysates were stored at −80 °C for future analysis. Upon completion of sample collection, RNA was extracted, and the samples were analyzed through quantitative real-time PCR to measure their HCV replicon content. The real-time RT-PCR data for all samples were calibrated against the “no-drug control”.
* After collection of all samples, RNA was extracted and samples were analyzed by quantitative real-
time PCR for their HCV replicon content. Real-time RT-PCR values of all assayed samples were
normalized against the “no-drug control”.

[9] = tested on: subgenomic HCV genotype 1b replicon; set-up: method as in PMID 30951311; details: cited from earlier work
[10] = primary screening, tested starting at 50 μg/mL
[11] = secondary screen starting at 125 μg/mL
[12] = Hepatitis C virus, primary screening, tested starting at 50 μg/mL
[13] = Hepatitis C virus, secondary screen starting at 125 μg/mL, average of triplicate
[14] = Huh 5-2 cells, primary screening starting at 50 μg/mL
[15] = Huh 5-2 cells, secondary screen starting at 125 μg/mL
[16] = compound 18 tested starting at 125 µg/mL

CC(C)(C)NC(=O)N[C@H](C(=O)N1C[C@H]2[C@@H]([C@H]1C(=O)NC(CC1CCC1)C(=O)C(N)=O)C2(C)C)C(C)(C)C (some centres unmarked) [boceprevir]
pEC50 [1]: 6.03 | CC50 [2]: ≥ 7.4 µM

O=c1ccnc(SCc2cc3cc(Cl)ccc3oc2=O)[nH]1 [Compound 18, 2-[(6′-Chlorocoumarin-3′-yl)methylthio]uracil]
CC50 [3, 10]: > 156 µM | CC50 [3, 11]: > 390 µM | pEC50 [4, 12]: 4.32 | pEC50 [4, 13]: 4.06 | inhibition at 125 µg/mL ([4]; Hepatitis C virus, Huh 5-2 cells, at 125 μg/mL): > 90% | SI (CC50/EC50) [4, 14]: >3.2 | SI (CC50/EC50) [4, 15]: >4.5 | % cell metabolism ([5]; 0.977 µg/ml): 103% | % cell metabolism ([5]; 1.953 µg/ml): 92% | % cell metabolism ([5]; 3.906 µg/ml): 109% | % cell metabolism ([5]; 7.813 µg/ml): 101% | % cell metabolism ([5]; 15.625 µg/ml): 98% | % cell metabolism ([5]; 31.25 µg/ml): 103% | % cell metabolism ([5]; 62.50 µg/ml): 99% | % cell metabolism ([5]; 125 µg/ml): 104% | CC50 [6, 16]: > 390 µM | CC50 ([6]; supplement dose-response data): > 125 µg/mL | cell death at highest tested concentration [7]: none of the three compounds induced cell death | pIC50 [7]: < 4.70 | SI (CC50/EC50) [8]: >41 | Quantity (HCV replicon RNA, real-time PCR) ([8]; 0.977 µg/ml): 2.11E-03 | % replicon RNA ([8]; 0.977 µg/ml): 66% | Quantity (HCV replicon RNA, real-time PCR) ([8]; 1.953 µg/ml): 2.06E-03 | % replicon RNA ([8]; 1.953 µg/ml): 64% | Quantity (HCV replicon RNA, real-time PCR) ([8]; 3.906 µg/ml): 1.40E-03 | % replicon RNA ([8]; 3.906 µg/ml): 44% | Quantity (HCV replicon RNA, real-time PCR) ([8]; 7.813 µg/ml): 1.12E-03 | % replicon RNA ([8]; 7.813 µg/ml): 35% | Quantity (HCV replicon RNA, real-time PCR) ([8]; 15.625 µg/ml): 4.59E-04 | % replicon RNA ([8]; 15.625 µg/ml): 14% | Quantity (HCV replicon RNA, real-time PCR) ([8]; 31.25 µg/ml): 2.30E-04 | % replicon RNA ([8]; 31.25 µg/ml): 7% | Quantity (HCV replicon RNA, real-time PCR) ([8]; 62.50 µg/ml): 6.77E-05 | % replicon RNA ([8]; 62.50 µg/ml): 2% | Quantity (HCV replicon RNA, real-time PCR) ([8]; 125 µg/ml): 4.20E-05 | % replicon RNA ([8]; 125 µg/ml): 1% | pEC50 [8]: 5.03 | EC50 [8]: 3 µg/mL

CC(C)OC(=O)[C@H](C)N[P@](=O)(OC[C@@]1(F)O[C@@H](n2ccc(=O)[nH]c2=O)[C@](C)(O)[C@@H]1O)Oc1ccccc1 [AL-335]
pEC50 [9]: 7.15

CCC[C@H](NC(=O)[C@@H]1[C@H]2CCC[C@H]2CN1C(=O)[C@@H](NC(=O)[C@@H](NC(=O)c1cnccn1)C1CCCCC1)C(C)(C)C)C(=O)C(=O)NC1CC1 [telaprevir]
pEC50 [1]: 5.96 | CC50 [2]: ≥ 24 µM

O=c1oc2ccc(Cl)cc2cc1CSc1ncnc2c1ncn2[C@@H]1O[C@H](CO)[C@@H](O)[C@H]1O [Compound 7b, 6-(6′-Chlorocoumarin-3′-yl)methylthio-9-(β-D-ribofuranos-1″-yl)purine]
CC50 [3, 10]: > 105 µM | CC50 [3, 11]: > 262 µM | pEC50 [4, 12]: 5.06 | pEC50 [4, 13]: 5.25 | SI (CC50/EC50) [4, 14]: >12 | SI (CC50/EC50) [4, 15]: >47 | % cell metabolism ([5]; 0.023 µg/ml): 100% | % cell metabolism ([5]; 0.069 µg/ml): 107% | % cell metabolism ([5]; 0.206 µg/ml): 102% | % cell metabolism ([5]; 0.617 µg/ml): 108% | % cell metabolism ([5]; 5.56 µg/ml): 115% | % cell metabolism ([5]; 16.67 µg/ml): 113% | % cell metabolism ([5]; 50 µg/ml): 94% | % cell metabolism ([5]; 1.852 (7b: 1.85) µg/ml): 106% | CC50 [6, 16]: > 105 µM | CC50 ([6]; supplement dose-response data): > 50 µg/mL | cell death at highest tested concentration [7]: none of the three compounds induced cell death | pIC50 [7]: < 4.70 | SI (CC50/EC50) [8]: >16 | Quantity (HCV replicon RNA, real-time PCR) ([8]; 0.023 µg/ml): 1.11E-04 | % replicon RNA ([8]; 0.023 µg/ml): 92% | Quantity (HCV replicon RNA, real-time PCR) ([8]; 0.069 µg/ml): 1.33E-04 | % replicon RNA ([8]; 0.069 µg/ml): 110% | Quantity (HCV replicon RNA, real-time PCR) ([8]; 0.206 µg/ml): 2.07E-04 | % replicon RNA ([8]; 0.206 µg/ml): 171% | Quantity (HCV replicon RNA, real-time PCR) ([8]; 0.617 µg/ml): 1.03E-04 | % replicon RNA ([8]; 0.617 µg/ml): 85% | Quantity (HCV replicon RNA, real-time PCR) ([8]; 5.56 µg/ml): 2.85E-05 | % replicon RNA ([8]; 5.56 µg/ml): 24% | Quantity (HCV replicon RNA, real-time PCR) ([8]; 16.67 µg/ml): 1.64E-05 | % replicon RNA ([8]; 16.67 µg/ml): 14% | Quantity (HCV replicon RNA, real-time PCR) ([8]; 50 µg/ml): 3.63E-06 | % replicon RNA ([8]; 50 µg/ml): 3% | Quantity (HCV replicon RNA, real-time PCR) ([8]; 1.852 (7b: 1.85) µg/ml): 9.12E-05 | % replicon RNA ([8]; 1.852 (7b: 1.85) µg/ml): 75% | pEC50 [8]: 5.18 | EC50 [8]: 3.17 µg/mL
